We go through 2 compounds from patent publication US20180078516A1 (InnovaZone Labs LLC, priority 2016, published 2018).

The conditions of data set [1]: cited from earlier work.
The conditions of data set [2]: cited from earlier work. This is another data set of the same source.
A further data set is described as follows: clinical. To be noted: human, in vivo, po, 400 mg.

SMILES strings stand for the structures.

Consider `CC(C)Cc1ccc(C(C)C(=O)O)cc1` (racemic) [Ibuprofen, (R,S)-2-(4-isobutylphenyl) propionic acid], for which the solubility in water entry in data set [1] is given as “practically insoluble”. Moreover, the “onset of therapeutic effects after oral administration” value in data set [2] is “between 45 minutes and one hour”.
Consider `CC(C)Cc1ccc(C(C)C(=O)O)cc1` (racemic) [ibuprofen sodium dihydrate, (R,S)-2-(4-isobutylphenyl) propionate sodium], for which, in “clinical”, the time to peak (Tmax) was ~35 min.
